For assay [1], the system named is MCF-7 breast adenocarcinoma cells. In words: MTT cell viability assay, MCF-7. Type of assay: cell-based, human. How it is done: (§1) The cell culture was made in flasks containing the medium appropriate to cell proliferation and allowing cell adhesion.
For this, the cells were seeded in 200 μl of complete cell medium in 96-well plates.
Cells were left to adhere for 24 h, followed by the addition of various dilutions in medium (200 μl) of the test compound. The test compound was first solubilized in DMSO and then in the cell medium and added to the cells at concentrations 1-100 μM. The final DMSO concentrations in the medium were lower than 0.5%. After 24 h and 72 h incubation, 37° C./5% CO2, the medium was substituted by 200 μl of the MTT solution (0.5 mg/ml in phosphate buffer—PBS). After 3-4 h incubation, the MTT solution was removed and the formazan crystals formed by the viable cells were dissolved in DMSO (200 μl). […] The cytotoxicity of the test compound was quantified calculating the drug concentration that inhibits the growth of 50% of cells (IC50) (GraphPad Prism software). The assessment was carried out with at least two independent experiments, each comprising six replicates per concentration.
Upon reaching the required confluence, the cells were harvested through addition of a 0.05% trypsin-EDTA solution (Gibco®). […] For this, the cells were seeded in 200 μl of complete cell medium in 96-well plates. […] Cells were left to adhere for 24 h, followed by the addition of various dilutions in medium (200 μl) of the test compound. The test compound was first solubilized in DMSO and then in the cell medium and added to the cells at concentrations 1-100 μM. The final DMSO concentrations in the medium were lower than 0.5%. […] The cytotoxicity of the test compound was quantified calculating the drug concentration that inhibits the growth of 50% of cells (IC50) (GraphPad Prism software). The assessment was carried out with at least two independent experiments, each comprising six replicates per concentration.
For orientation: Formazan colour is commonly taken as a measure of viable cells.

Assay [2] deals with MCF-7 cancer cell line. The following applies: 48 h of incubation, 10 μM. The text has this: This assay is widely used to determine if cells are viable, apoptotic, or necrotic through differences in plasma membrane integrity and permeability. All in all, Annexin V/PI is a commonly used approach for studying cell death (Rieger et al. 2011).
Annexin V a marker of early apoptosis. […] Cisplatin was used as a positive control since it is known to induce apoptosis.

For assay [3], the system named is human cells of MCF-7 breast cancer. The following applies: 24 h incubation, versus untreated control cells (100%). The text has this:
The intrinsic pathway is triggered by intracellular or extracellular stress. The signals that are transduced in response to these stimuli converge mainly to the mitochondria. This organelle integrates the cell death stimuli, inducing mitochondrial permeabilization and consequent release of pro-apoptotic molecules present therein.

In assay [4] the test system is A2780 ovarian carcinoma cells. Put plainly: MTT cell viability assay, A2780. The class given is cell-based, human. The following applies: 72 h incubation, read-out: IC50 after a 72 h incubation, A2780. How it is done: (§2) The cultures of human breast (MDA-MB-231; ATCC) and ovarian (A2780, ATCC) carcinoma cell lines, were carried out in DMEM (Gibco) medium containing GlutaMax I (MDA-MB-231) or RPMI (A2780) and were completed with 10% FBS and 1% penicillin-streptomycin and kept at 37° C. in a humidified atmosphere containing 5% de CO2.
as §1
(§3) Upon reaching the required confluence, the cells were harvested through addition of a 0.05% trypsin-EDTA solution (Gibco®). […] For this, the cells were seeded in 200 μl of complete cell medium in 96-well plates. Cell density was 2×10^4 viable cells (MDA-MB-231 and A2780) per well.
(§4) Cells were left to adhere for 24 h, followed by the addition of various dilutions in medium (200 μl) of the test compound. The test compound was first solubilized in DMSO and then in the cell medium and added to the cells at concentrations 1-100 μM. The final DMSO concentrations in the medium were lower than 0.5%. After 24 h and 72 h incubation, 37° C./5% CO2, the medium was substituted by 200 μl of the MTT solution (0.5 mg/ml in phosphate buffer—PBS). After 3-4 h incubation, the MTT solution was removed and the formazan crystals formed by the viable cells were dissolved in DMSO (200 μl). Cell viability was assessed measuring the absorbance at 570 nm, using a plate spectrophotometer.
(§5) The cytotoxicity of the test compound was quantified calculating the drug concentration that inhibits the growth of 50% of cells (IC50) (GraphPad Prism software). The assessment was carried out with at least two independent experiments, each comprising six replicates per concentration. Dose-response curves of cell viability, after a 72 h incubation, are represented in the graphs of the FIGS. 4a and 4b.
Upon reaching the required confluence, the cells were harvested through addition of a 0.05% trypsin-EDTA solution (Gibco®). […] For this, the cells were seeded in 200 μl of complete cell medium in 96-well plates. […]

For assay [5], the system named is MDA-MB-231 human breast carcinoma cells. In words: MTT cell viability assay, MDA-MB-231. The class given is cell-based. The note with it: 72 h incubation, read-out: IC50 after a 72 h incubation, MDA-MB-231. As to the method: as §2, §1, §3, §4, §5
The test system of assay [6] is MCF-7 cancer cell line. The following applies: immunofluorescence, versus control cells. The text has this:
In this immunofluorescence assay, Alexa Fluor 488® phalloidin, which is a high-affinity filamentous actin (F-actin) probe conjugated to the green-fluorescent Alexa Fluor® 488 dye was used. In order to obtain nuclear staining DAPI (blue) was used (FIG. 9).

A further assay concerns glioma U87 cells. The note with it: literature value (J. Biol. Chem. 1997, 272:14041-14044); read-out: value found in the literature for the glioma line; cited from earlier work.
Where [7] appears, read: 24 h incubation, read-out: IC50 after a 24 h incubation, MCF-7.
Setting [8] is: 72 h incubation, read-out: IC50 after a 72 h incubation, MCF-7.

The values below come from patent US11168179B2, “Macromolecular transition metal complexes for treatment of cancer and process for their preparation” (FACULDADE DE CIÉNCIAS DA UNIVERSIDADE DE LISBOA, priority 2014, dated 2021).

Read-outs that look alike come from different tables or passages of the source.

For “[(1,1′-{1,1′-(1,1′-{2,2′-Bipyridine-4,4′-diylbis(methylene)}bis(oxy)bis(1-oxopropane-2,1-diyl))bis(poly(lactic acid)-yl))}bis(oxy)bis(1-oxopropane-2,1-diyl)di(2S,3S,4S,5R,6R)-3,4,5,6-tetrahydroxyoxane-2-carboxylate)-k^2N,N′](triphenylphosphane)(η^5-cyclopentadienyl)-ruthenium(II) triflate [Compound 6]”, the IC50 amounted to 5 ± 1.65 µM in assay [1] (setting [7]), 4.62 ± 1.15 µM in assay [1] (setting [8]), 2.2 ± 0.85 µM in assay [4] and 5.96 ± 3.25 µM in assay [5]. Moreover, in the assay on MCF-7 cancer cell line [2], the “percentage of Annexin V stained cells in comparison to the control” value was “increase”. Further, the “type of cell death induced” value with MCF-7 cancer cell line [2] is listed as “apoptosis”. Further, in assay [3], the “expression of catalase and SMAC diablo proteins” value is recorded as “decrease”. Moreover, the “effect on cytoskeleton (F-actin filaments)” value in the assay with MCF-7 cancer cell line [6] is “cytoskeleton loses its organization”.

Regarding `N.N.[Cl][Pt][Cl]` [Cisplatin, reference compound], the IC50 was 28 ± 6 µM in assay [1] (setting [8]), 2 ± 0.1 µM in assay [4], 39 ± 5 µM in assay [5] and 130 ± 53 µM in the assay with glioma U87 cells.

Turning to “(2,2′-bipyridine-4,4′-diylbis{methylene}bis(2-{2-(2-hydroxypropanoyloxy)poly(lactic acid)-yl}propanoate)-k^2N,N′)(triphenylphosphane)(η^5-cyclopentadienyl)ruthenium(II) triflate [Compound 5]”, the IC50 in assay [1] (setting [7]) is 4.25 ± 1.15 µM; in assay [1] (setting [8]), 4.09 ± 1.97 µM; in assay [4] it was 3.4 ± 1.3 µM; in assay [5], 2.7 ± 0.55 µM. In addition, the “percentage of Annexin V stained cells in comparison to the control” value in the assay with MCF-7 cancer cell line [2] is reported as “increase”. In the assay with MCF-7 cancer cell line [2], the “type of cell death induced” value is on record as “apoptosis”. Moreover, the “expression of catalase and SMAC diablo proteins” value in assay [3] is recorded as “decrease”. For the same molecule, in the assay on MCF-7 cancer cell line [6], the “effect on cytoskeleton (F-actin filaments)” value was “cytoskeleton loses its organization”.
